These results are taken from paper PMC6218957, “VS-4718 Antagonizes Multidrug Resistance in ABCB1- and ABCG2-Overexpressing Cancer Cells by Inhibiting the Efflux Function of ABC Transporters” (Frontiers in Pharmacology, 2018).

Each structure is given as a SMILES string.

Data set [1] addresses T1, ABCG2 (Homo sapiens, UniProt Q9UNQ0).
T1 sequence (Q9UNQ0 1-655): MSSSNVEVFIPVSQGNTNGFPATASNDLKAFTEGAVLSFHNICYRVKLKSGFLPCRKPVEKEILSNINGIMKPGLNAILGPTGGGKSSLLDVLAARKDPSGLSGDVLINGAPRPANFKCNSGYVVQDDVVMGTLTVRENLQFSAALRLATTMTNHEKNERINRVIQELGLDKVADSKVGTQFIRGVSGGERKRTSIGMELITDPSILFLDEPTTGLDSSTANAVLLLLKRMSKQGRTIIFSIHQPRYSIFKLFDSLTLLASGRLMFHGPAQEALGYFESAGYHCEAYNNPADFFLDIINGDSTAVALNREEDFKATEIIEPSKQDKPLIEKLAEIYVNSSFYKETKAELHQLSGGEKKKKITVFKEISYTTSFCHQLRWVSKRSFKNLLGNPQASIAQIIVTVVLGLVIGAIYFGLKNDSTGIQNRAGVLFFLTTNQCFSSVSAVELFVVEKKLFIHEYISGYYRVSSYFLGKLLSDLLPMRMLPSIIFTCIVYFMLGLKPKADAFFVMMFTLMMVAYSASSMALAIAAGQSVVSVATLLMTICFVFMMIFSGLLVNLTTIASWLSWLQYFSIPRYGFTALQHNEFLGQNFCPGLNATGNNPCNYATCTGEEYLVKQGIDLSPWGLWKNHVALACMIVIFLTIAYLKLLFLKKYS

Data set [2] concerns the target T2, ABCB1 (Homo sapiens, UniProt P08183).
In data set [3] the target is T1, ABCG2. In words: biochemical. Details: cell membranes that overexpressed ABCG2.
In data set [4] the target is T2, ABCB1. As to the kind of experiment: ATPase stimulation in ABCB1-overexpressing membranes; also [3H]-paclitaxel accumulation/efflux inhibition in KB-C2 cells. Details: cell membranes that overexpressed ABCB1. In kind it is biochemical.

T2 sequence (P08183 whole entry): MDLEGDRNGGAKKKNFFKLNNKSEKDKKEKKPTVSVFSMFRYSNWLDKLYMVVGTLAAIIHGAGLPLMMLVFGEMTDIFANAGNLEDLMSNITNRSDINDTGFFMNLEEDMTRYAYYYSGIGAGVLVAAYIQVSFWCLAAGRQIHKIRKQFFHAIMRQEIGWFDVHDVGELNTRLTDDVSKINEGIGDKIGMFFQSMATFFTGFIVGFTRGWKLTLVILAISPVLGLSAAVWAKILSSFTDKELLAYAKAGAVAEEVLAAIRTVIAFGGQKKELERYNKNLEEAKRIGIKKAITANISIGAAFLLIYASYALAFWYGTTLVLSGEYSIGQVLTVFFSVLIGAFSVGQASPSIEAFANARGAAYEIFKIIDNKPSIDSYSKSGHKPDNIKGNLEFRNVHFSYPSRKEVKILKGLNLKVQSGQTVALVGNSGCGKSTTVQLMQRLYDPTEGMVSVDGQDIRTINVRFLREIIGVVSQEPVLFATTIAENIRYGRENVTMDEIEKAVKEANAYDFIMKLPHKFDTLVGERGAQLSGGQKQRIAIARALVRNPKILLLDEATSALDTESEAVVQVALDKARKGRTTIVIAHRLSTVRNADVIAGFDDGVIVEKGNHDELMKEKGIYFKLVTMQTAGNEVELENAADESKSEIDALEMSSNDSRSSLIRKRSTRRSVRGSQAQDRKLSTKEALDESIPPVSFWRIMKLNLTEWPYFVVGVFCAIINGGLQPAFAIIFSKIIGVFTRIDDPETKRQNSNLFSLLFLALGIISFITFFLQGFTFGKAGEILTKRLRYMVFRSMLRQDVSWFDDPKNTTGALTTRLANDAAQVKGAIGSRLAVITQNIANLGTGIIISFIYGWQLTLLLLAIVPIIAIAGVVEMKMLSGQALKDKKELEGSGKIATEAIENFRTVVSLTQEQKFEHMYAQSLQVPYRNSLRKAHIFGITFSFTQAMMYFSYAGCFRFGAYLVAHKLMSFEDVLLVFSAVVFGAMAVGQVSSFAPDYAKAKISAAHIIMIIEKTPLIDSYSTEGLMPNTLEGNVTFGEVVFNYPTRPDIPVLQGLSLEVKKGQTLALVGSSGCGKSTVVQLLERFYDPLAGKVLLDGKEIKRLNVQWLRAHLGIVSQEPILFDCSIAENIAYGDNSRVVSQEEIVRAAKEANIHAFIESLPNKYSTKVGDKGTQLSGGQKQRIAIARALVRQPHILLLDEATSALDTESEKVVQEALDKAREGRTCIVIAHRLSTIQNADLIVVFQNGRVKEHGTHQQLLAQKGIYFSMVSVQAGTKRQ

Take `O=C1c2c(O)ccc(O)c2C(=O)c2c(NCCNCCO)ccc(NCCNCCO)c21` [Mitoxantrone]: at ABCG2 [1], the “radiolabelled efflux/accumulation in ABCG2-overexpressing NCI-H460/MX20 vs paren” value was “[^3H]-mitoxantrone efflux in ABCG2-overexpressing NCI-H460/MX20 cells”.

In the case of `CC(=O)O[C@H]1C(=O)[C@@]2(C)[C@H]([C@H](OC(=O)c3ccccc3)[C@]3(O)C[C@H](OC(=O)[C@H](O)[C@@H](NC(=O)c4ccccc4)c4ccccc4)C(C)=C1C3(C)C)[C@]1(OC(C)=O)CO[C@@H]1C[C@@H]2O` [Paclitaxel], the “radiolabelled efflux/accumulation in ABCB1-overexpressing KB-C2 vs parental KB-3” value at ABCB1 [2] is “VS-4718 significantly reduced the efflux of [^3H]-paclitaxel in ABCB1-overexpressing KB-C2 cells”.

For `CNC(=O)c1ccccc1Nc1cc(Nc2ccc(N3CCOCC3)cc2OC)ncc1C(F)(F)F` [VS-4718], the EC50 on ABCG2 [3] worked out at 9.6 µM; at ABCB1 [4] it was 1.72 µM.

As usually defined, the EC50 is the midpoint of the concentration-response curve.
